# From patent US12655150B2 (Cedilla Therapeutics, Inc., priority 2021, dated 2026)
# System: NCI-H226
# Assay: 72H TEAD Proliferation Assay (Cell Titer Glo 2.0)
# Format: cell-based
# Conditions: CTG 2.0, cell line not given (NCI-H226 responsive, NCI-H28 non-responsive)
# Method: 72H TEAD Proliferation Assay.
# The effect of TEAD inhibition on cell proliferation was assayed using Cell Titer Glo (CTG) 2.0 to measure response in mesothelioma cell lines NCI-H226 (ATCC, #CRL-5826) and NCI-H28 (ATCC, #CRL-5820).
# The 72H TEAD Proliferation assay utilizes Cell Titer-Glo 2.0 (Promega, #G9243) to measure the proliferation of cells in the presence or absence of compound. Cell Titer-Glo 2.0 determines the amount of viable cells by quantifying ATP (an indication of metabolically active cells). It utilizes the conversion of Luciferin to Oxyluciferin and a luminescent signal with the use of ATP to report the quantity of viable cells in culture. Within cells that are continually growing, ATP is being synthesized to meet their metabolic demands, meanwhile the opposite is true for cells that are dying or slowing down their proliferation and either no longer using ATP or are using less, respectively. The NF2-deficient NCI-H226 has been genetically validated as a cell line that is sensitive to TEAD inhibition. The NF2-wild type NCI-H28 has been genetically validated as a cell line that is not sensitive to TEAD inhibition and grows independently of TEAD activity.
# Compounds were screened against the responsive NCI-H226 cell line to assess the compounds' ability to inhibit TEAD and cell growth. Compounds were also screened against the non-responsive NCI-H28 cell line to ascertain whether the inhibition of cell growth was due to inhibition of the target TEAD or whether the inhibition was due to off-target cytotoxicity.
# • 1) Assay ready plates (ARPs) were prepared by Echo acoustic liquid handler. […] After CTG addition, plates were placed on shaker at 800 RPM for 15 minutes at room temperature and kept in the dark. Luminescence was measured using EnVision multilabel plate reader with ultra-sensitive detection module. • 9) Data Analysis: First background luminescence (no CTG wells) was subtracted from luminescence reading of all wells, then TO luminescence was subtracted from T72 luminescence. To compare anti-proliferative effect of compounds, GI50 was obtained by fitting dose response curves with nonlinear regression curve fit.
row,GI50,SMILES
1,1000 to 5000 nM,"CC(C)(C)c1ccc(-c2nc3cc(S(C)(=N)=O)ccc3n3cccc23)cc1 (single isomer, unassigned) [I-208, (4-(4-(tert-Butyl)phenyl)pyrrolo[1,2-a]quinoxalin-7-yl)(imino)(methyl)-16-sulfanone]"

# Same assay, conditions: Homo sapiens, NCI-H226, 72 h, CTG 2.0, cell line not given (NCI-H226 responsive, NCI-H28 non-responsive)
row,SMILES,GI50
1,"O=C(O)c1ccc2c(c1)nc(NCCC(F)(F)C(F)(F)F)c1cccn12 [I-121, 4-((3,3,4,4,4-Pentafluorobutyl)amino)pyrrolo[1,2-a]quinoxaline-7-carboxylic acid]",1000 to 5000 nM
2,"C=CC(=O)Nc1ccc2c(c1)nc(-c1ccc(C(C)(C)C)cc1)c1cccn12 [I-119, N-(4-(4-(tert-butyl)phenyl)pyrrolo[1,2-a]quinoxalin-7-yl)acrylamide]",≤ 1000 nM
3,"O=C(O)c1ccc2c(c1)nc(-c1ccc(C(F)(F)F)cc1)c1cccn12 [I-42, 4-(4-(Trifluoromethyl)phenyl)pyrrolo[1,2-a]quinoxaline-7-carboxylic acid]",≤ 1000 nM
4,"O=C(O)c1ccc2c(c1)nc(-c1ccc(C3CCCCC3)cc1)c1nccn12 [I-62, 4-(4-Cyclohexylphenyl)imidazo[1,2-a]quinoxaline-7-carboxylic acid]",> 10000 nM
5,"CC(C)(C)c1ccc(-c2nc3cc(C(=O)O)ccc3n3ccc(F)c23)cc1 [I-115, 4-(4-(tert-Butyl)phenyl)-3-fluoropyrrolo[1,2-a]quinoxaline-7-carboxylic acid]",≤ 1000 nM
6,"CC(C)(C)c1ccc(-c2nc(/C=C/C#N)cn3ccnc23)cc1 [I-154, (E)-3-(8-(4-(tert-Butyl)phenyl)imidazo[1,2-a]pyrazin-6-yl)acrylonitrile]",1000 to 5000 nM
7,"O=C(O)c1ccc2c(c1)nc(N1CCC3(CC1)CC3(F)F)c1cccn12 [I-36, 4-(1,1-Difluoro-6-azaspiro[2.5]octan-6-yl)pyrrolo[1,2-a]quinoxaline-7-carboxylic acid]",≤ 1000 nM
8,"CC(C)(C)c1ccc(-c2nc(CCc3nnn[nH]3)cn3ccnc23)cc1 [I-156, 6-(2-(1H-tetrazol-5-yl)ethyl)-8-(4-(tert-butyl)phenyl)imidazo[1,2-a]pyrazine]",> 10000 nM
9,"C=CC(=O)Nc1cn2ccnc2c(-c2ccc(C(C)(C)C)cc2)n1 [I-146, N-(8-(4-(tert-Butyl)phenyl)imidazo[1,2-a]pyrazin-6-yl)acrylamide]",1000 to 5000 nM
10,"C=CC(=O)Nc1ccc2c(c1)nc(-c1ccc(C(F)(F)F)cn1)c1cccn12 [I-202, N-(4-(5-(trifluoromethyl)pyridin-2-yl)pyrrolo[1,2-a]quinoxalin-7-yl)acrylamide]",≤ 1000 nM
11,"O=C(O)c1ccc2c(c1)nc(N1CCOCC1)c1cccn12 [I-7, 4-Morpholinopyrrolo[1,2-a]quinoxaline-7-carboxylic acid]",> 10000 nM
12,"O=C(O)c1ccc2c(c1)nc(N1CCC(C(F)(F)F)C1)c1cccn12 (centres unmarked) [I-10, 4-(3-(Trifluoromethyl)pyrrolidin-1-yl)pyrrolo[1,2-a]quinoxaline-7-carboxylic acid]",1000 to 5000 nM
13,"O=C(O)c1ccc2c(c1)nc(N1CCC3(CCCCC3)C1)c1cccn12 [I-28, 4-(2-Azaspiro [4.5]decan-2-yl) pyrrolo[1,2-a] quinoxaline-7-carboxylic acid]",1000 to 5000 nM
14,"CC(C)(C)c1ccc(-c2nc3cc(C(=O)O)ccc3n3cc(F)cc23)cc1 [I-108, 4-(4-(tert-Butyl)phenyl)-2-fluoropyrrolo[1,2-a]quinoxaline-7-carboxylic acid]",1000 to 5000 nM
15,"CC(C)(C)c1ccc(-c2nc3cc(C(=O)O)ccc3n3ccnc23)cc1 [I-58, 4-(4-(tert-Butyl)phenyl)imidazo[1,2-a]quinoxaline-7-carboxylic acid]",5000 to 10000 nM
16,"O=C(O)c1cnc2c(c1)nc(N1CCC3(CC1)CC3)c1cccn12 [I-138, 6-(6-Azaspiro[2.5]octan-6-yl)pyrido[3,2-e]pyrrolo[1,2-a]pyrazine-3-carboxylic acid]",1000 to 5000 nM
17,"CC(C)(C)c1ccc(-n2ccc3cc(C(=O)O)ccc32)cc1 [I-101, 1-(4-(tert-Butyl)phenyl)-1H-indole-5-carboxylic acid]",> 10000 nM
18,"O=C(O)c1ccc2c(c1)nc(N1CCC3(CC1)COC3)c1cccn12 [I-29, 4-(2-Oxa-7-azaspiro[3.5]nonan-7-yl)pyrrolo[1,2-a]quinoxaline-7-carboxylic acid]",> 10000 nM
19,"O=C(O)c1ccc2c(c1)nc(C1CC1)c1nccn12 [I-70, 4-Cyclopropylimidazo[1,2-a]quinoxaline-7-carboxylic acid]",> 10000 nM

# Continued, values first:
row,GI50,SMILES
1,1000 to 5000 nM,"Cc1cc(-c2ccc(C(F)(F)F)cc2)nc2cc(C(=O)N[C@@H](C)COC(F)(F)F)ccc12 [I-264, (S)-4-methyl-N-(1-(trifluoromethoxy)propan-2-yl)-2-(4-(trifluoromethyl)phenyl)quinoline-7-carboxamide]"
2,≤ 1000 nM,"CC[C@H](CO)NC(=O)c1ccc2c(OC)cc(-c3ccc(C(F)(F)F)cc3C)nc2c1 [I-336, (R)—N-(1-hydroxybutan-2-yl)-4-methoxy-2-(2-methyl-4-(trifluoromethyl)phenyl)quinoline-7-carboxamide]"
3,≤ 1000 nM,"C=CC(=O)NCc1cn2c(F)ccc2c(-c2ccc(C(F)(F)F)cc2)n1 [I-318, N-((6-Fluoro-1-(4-(trifluoromethyl)phenyl)pyrrolo[1,2-a]pyrazin-3-yl)methyl)acrylamide]"
4,1000 to 5000 nM,"O=C(O)c1cc(CO)c2c(c1)nc(N1CCC3(CC1)CC3)c1cccn12 [I-278, 9-(hydroxymethyl)-4-(6-azaspiro[2.5]octan-6-yl)pyrrolo[1,2-a]quinoxaline-7-carboxylic acid]"
5,≤ 1000 nM,"COc1cccc([C@H](C)NC(=O)c2ccc3c(C)cc(-c4ccc(C(F)(F)F)cc4)nc3c2)c1 [I-268, (S)—N-(1-(3-methoxyphenyl)ethyl)-4-methyl-2-(4-(trifluoromethyl)phenyl)quinoline-7-carboxamide]"
6,≤ 1000 nM,"CC[C@H](CO)NC(=O)c1ccc2c(OC)cc(-c3ccc(C(F)(F)F)cc3)nc2c1 [I-326, (R)—N-(1-hydroxybutan-2-yl)-4-methoxy-2-(4-(trifluoromethyl)phenyl)quinoline-7-carboxamide]"
7,1000 to 5000 nM,"Cc1cc(C(=O)O)cc2nc(-c3ccc(C(C)(C)C)cc3)c3cccn3c12 [I-321, 4-(4-(Tert-butyl)phenyl)-9-methylpyrrolo[1,2-a]quinoxaline-7-carboxylic acid]"
8,1000 to 5000 nM,"O=C(O)c1ccc2c(N3CCCCC3)cc(-c3ccc(C(F)(F)F)cc3)nc2c1 [I-391, 4-(piperidin-1-yl)-2-(4-(trifluoromethyl)phenyl)quinoline-7-carboxylic acid]"
9,1000 to 5000 nM,"CC(C)(C)c1ccc(-c2nc3cc(C(=O)O)cc(CO)c3n3cccc23)cc1 [I-279, 4-(4-(tert-butyl)phenyl)-9-(hydroxymethyl)pyrrolo[1,2-a]quinoxaline-7-carboxylic acid]"
10,1000 to 5000 nM,"Cc1cc(-c2ccc(C(F)(F)F)cc2)nc2cc(C(N)=O)ccc12 [I-258, 4-Methyl-2-(4-(trifluoromethyl)phenyl)quinoline-7-carboxamide]"
11,1000 to 5000 nM,"COc1cc(-c2ccc(C(F)(F)F)cc2)nc2cc(C(=O)N[C@@H](CO)CC(C)C)ccc12 [I-370, (R)—N-(1-hydroxy-4-methylpentan-2-yl)-4-methoxy-2-(4-(trifluoromethyl)phenyl)quinoline-7-carboxamide]"
12,1000 to 5000 nM,"C=CC(=O)NCc1cn2ccnc2c(Nc2cccc(OC(F)(F)F)c2)n1 [I-442, N-((8-((3-(trifluoromethoxy)phenyl)amino)imidazo[1,2-a]pyrazin-6-yl)methyl)acrylamide]"
13,≤ 1000 nM,"C=CC(=O)NCc1nc(-c2ccc(C(F)(F)F)cc2)c2ccncc2n1 [I-309, N-((4-(4-(trifluoromethyl)phenyl)pyrido[3,4-d]pyrimidin-2-yl)methyl)acrylamide]"
14,≤ 1000 nM,"COc1cc(-c2ccc(C(F)(F)F)cc2)nc2cc(C(=O)N[C@H](C)CO)ccc12 [I-324, (R)—N-(1-hydroxypropan-2-yl)-4-methoxy-2-(4-(trifluoromethyl)phenyl)quinoline-7-carboxamide]"
15,≤ 1000 nM,"O=C(/C=C/CF)NCc1cn2ccnc2c(-c2ccc(C(F)(F)F)cc2)n1 [I-214, (E)-4-fluoro-N-((8-(4-(trifluoromethyl)phenyl)imidazo[1,2-a]pyrazin-6-yl)methyl)but-2-enamide]"
16,1000 to 5000 nM,"Cc1nc(-c2ccc(C(F)(F)F)cc2)nc2cc(C(=O)O)ccc12 [I-435, 4-methyl-2-(4-(trifluoromethyl)phenyl)quinazoline-7-carboxylic acid]"
17,≤ 1000 nM,"O=C(O)c1ccc2c(c1)nc(-c1ccc(C(F)(F)F)cc1)c1cc(OC(F)F)cn12 [I-275, 2-(difluoromethoxy)-4-(4-(trifluoromethyl)phenyl)pyrrolo[1,2-a]quinoxaline-7-carboxylic acid]"
18,≤ 1000 nM,"C=CC(=O)Nc1ccc2c(OC)cc(-c3ccc(C(C)(C)C)cc3)nc2c1 [I-384, N-(2-(4-(Tert-butyl)phenyl)-4-methoxyquinolin-7-yl)acrylamide]"
